Test results taken from ChEMBL document CHEMBL3885881, “DrugMatrix”.

Organism: Rattus norvegicus
Test: DrugMatrix - Regimen: Daily Repeat
Assay type: toxicity, organism-based, Sprague-Dawley
Set-up: regimen Daily Repeat, gender Male, age 6-8 weeks
Details: in vivo, sc, route subcutaneous, […]; for ABSOLUTE BASOPHIL / ABSOLUTE EOSINOPHIL / ABSOLUTE LYMPHOCYTE / ABSOLUTE MONOCYTE / ABSOLUTE SEGMENTED NEUTROPHIL / BASOPHIL / EOSINOPHIL / ERYTHROCYTE COUNT / HEMATOCRIT / HEMOGLOBIN / LEUKOCYTE COUNT / LYMPHOCYTE / MEAN CORPUSCULAR HEMOGLOBIN / MEAN CORPUSCULAR HEMOGLOBIN CONCENTRATION / MONOCYTE / NUCLEATED RED BLOOD CELLS / PLATELET COUNT: tissue Blood; for ALANINE AMINOTRANSFERASE / ALBUMIN / ALKALINE PHOSPHATASE / ASPARTATE AMINOTRANSFERASE / BLOOD UREA NITROGEN / CARBON DIOXIDE / CHLORIDE / CHOLESTEROL / CREATINE PHOSPHOKINASE / CREATININE / GLUCOSE / LACTATE DEHYDROGENASE / PHOSPHORUS / POTASSIUM / SODIUM / TOTAL BILIRUBIN / TOTAL PROTEIN / URIC ACID: tissue Plasma
[1] = 130 mg/kg, 72 h, dose level High, time 3 day
[2] = 130 mg/kg, 120 h, dose level High, time 5 day
[3] = 72 h, dose 2.4 mg/Kg, dose level Low, time 3 day
[4] = 120 h, dose 2.4 mg/Kg, dose level Low, time 5 day

CC(C)(C)NCC(O)c1cc(O)cc(O)c1 (stereo not given) [TERBUTALINE]
ABSOLUTE BASOPHIL [1]: 0 CELLS/uL | ABSOLUTE EOSINOPHIL [1]: 167.67 CELLS/uL | ABSOLUTE LYMPHOCYTE [1]: 11900.33 CELLS/uL | ABSOLUTE MONOCYTE [1]: 398.67 CELLS/uL | ABSOLUTE SEGMENTED NEUTROPHIL [1]: 1166.67 CELLS/uL | BASOPHIL [1]: 0% | EOSINOPHIL [1]: 1.33% | ERYTHROCYTE COUNT [1]: 5.52 x10E6/uL | HEMATOCRIT [1]: 35.5% | HEMOGLOBIN [1]: 13.33 G/DL | LEUKOCYTE COUNT [1]: 13.63 x10E3/uL | LYMPHOCYTE [1]: 87% | MEAN CORPUSCULAR HEMOGLOBIN [1]: 24.2 pg | MEAN CORPUSCULAR HEMOGLOBIN CONCENTRATION [1]: 37.57 G/DL | MONOCYTE [1]: 3% | NUCLEATED RED BLOOD CELLS [1]: 0 /100WBC | PLATELET COUNT [1]: 1383.67 x10E3/uL | ALANINE AMINOTRANSFERASE [1]: 49 u/L | ALBUMIN [1]: 4.03 G/DL | ALKALINE PHOSPHATASE [1]: 361 u/L | ASPARTATE AMINOTRANSFERASE [1]: 73.33 u/L | BLOOD UREA NITROGEN [1]: 18.33 mg/dL | CARBON DIOXIDE [1]: 25.67 mmol/L | CHLORIDE [1]: 104 MEQ/L | CHOLESTEROL [1]: 72.33 mg/dL | CREATINE PHOSPHOKINASE [1]: 253.67 u/L | CREATININE [1]: 0.23 mg/dL | GLUCOSE [1]: 146 mg/dL | LACTATE DEHYDROGENASE [1]: 407 u/L | PHOSPHORUS [1]: 12.8 mg/dL | POTASSIUM [1]: 6.42 MEQ/L | SODIUM [1]: 145.5 MEQ/L | TOTAL BILIRUBIN [1]: 0.2 mg/dL | TOTAL PROTEIN [1]: 5.97 G/DL | URIC ACID [1]: 1.3 mg/dL | ABSOLUTE BASOPHIL [2]: 0 CELLS/uL | ABSOLUTE EOSINOPHIL [2]: 53.33 CELLS/uL | ABSOLUTE LYMPHOCYTE [2]: 12240 CELLS/uL | ABSOLUTE MONOCYTE [2]: 406 CELLS/uL | ABSOLUTE SEGMENTED NEUTROPHIL [2]: 2467.33 CELLS/uL | BASOPHIL [2]: 0% | EOSINOPHIL [2]: 0.33% | ERYTHROCYTE COUNT [2]: 6.08 x10E6/uL | HEMATOCRIT [2]: 37.43% | HEMOGLOBIN [2]: 14.03 G/DL | LEUKOCYTE COUNT [2]: 15.17 x10E3/uL | LYMPHOCYTE [2]: 80.67% | MEAN CORPUSCULAR HEMOGLOBIN [2]: 23.13 pg | MEAN CORPUSCULAR HEMOGLOBIN CONCENTRATION [2]: 37.47 G/DL | MONOCYTE [2]: 2.67% | NUCLEATED RED BLOOD CELLS [2]: 0.33 /100WBC | PLATELET COUNT [2]: 1346 x10E3/uL | ALANINE AMINOTRANSFERASE [2]: 52.67 u/L | ALBUMIN [2]: 4.13 G/DL | ALKALINE PHOSPHATASE [2]: 293.33 u/L | ASPARTATE AMINOTRANSFERASE [2]: 84.67 u/L | BLOOD UREA NITROGEN [2]: 17.33 mg/dL | CARBON DIOXIDE [2]: 28.33 mmol/L | CHLORIDE [2]: 101.33 MEQ/L | CHOLESTEROL [2]: 69 mg/dL | CREATINE PHOSPHOKINASE [2]: 289.33 u/L | CREATININE [2]: 0.22 mg/dL | GLUCOSE [2]: 150.67 mg/dL | LACTATE DEHYDROGENASE [2]: 492.33 u/L | PHOSPHORUS [2]: 14.6 mg/dL | POTASSIUM [2]: 6.32 MEQ/L | SODIUM [2]: 146.93 MEQ/L | TOTAL BILIRUBIN [2]: 0.2 mg/dL | TOTAL PROTEIN [2]: 6.13 G/DL | URIC ACID [2]: 1.93 mg/dL | ABSOLUTE BASOPHIL [3]: 0 CELLS/uL | ABSOLUTE EOSINOPHIL [3]: 181 CELLS/uL | ABSOLUTE LYMPHOCYTE [3]: 16357.33 CELLS/uL | ABSOLUTE MONOCYTE [3]: 366 CELLS/uL | ABSOLUTE SEGMENTED NEUTROPHIL [3]: 1395.67 CELLS/uL | BASOPHIL [3]: 0% | EOSINOPHIL [3]: 1% | ERYTHROCYTE COUNT [3]: 5.97 x10E6/uL | HEMATOCRIT [3]: 37.73% | HEMOGLOBIN [3]: 13.8 G/DL | LEUKOCYTE COUNT [3]: 18.3 x10E3/uL | LYMPHOCYTE [3]: 89.33% | MEAN CORPUSCULAR HEMOGLOBIN [3]: 23.13 pg | MEAN CORPUSCULAR HEMOGLOBIN CONCENTRATION [3]: 36.6 G/DL | MONOCYTE [3]: 2% | NUCLEATED RED BLOOD CELLS [3]: 0 /100WBC | PLATELET COUNT [3]: 1334.67 x10E3/uL | ALANINE AMINOTRANSFERASE [3]: 41.67 u/L | ALBUMIN [3]: 4.2 G/DL | ALKALINE PHOSPHATASE [3]: 286.67 u/L | ASPARTATE AMINOTRANSFERASE [3]: 75 u/L | BLOOD UREA NITROGEN [3]: 17 mg/dL | CARBON DIOXIDE [3]: 24.33 mmol/L | CHLORIDE [3]: 105.67 MEQ/L | CHOLESTEROL [3]: 72.67 mg/dL | CREATINE PHOSPHOKINASE [3]: 235.33 u/L | CREATININE [3]: 0.23 mg/dL | GLUCOSE [3]: 155.67 mg/dL | LACTATE DEHYDROGENASE [3]: 382 u/L | PHOSPHORUS [3]: 13.4 mg/dL | POTASSIUM [3]: 6.76 MEQ/L | SODIUM [3]: 149.43 MEQ/L | TOTAL BILIRUBIN [3]: 0.2 mg/dL | TOTAL PROTEIN [3]: 6.23 G/DL | URIC ACID [3]: 1.77 mg/dL | ABSOLUTE BASOPHIL [4]: 0 CELLS/uL | ABSOLUTE EOSINOPHIL [4]: 0 CELLS/uL | ABSOLUTE LYMPHOCYTE [4]: 13803 CELLS/uL | ABSOLUTE MONOCYTE [4]: 207 CELLS/uL | ABSOLUTE SEGMENTED NEUTROPHIL [4]: 2023.33 CELLS/uL | BASOPHIL [4]: 0% | EOSINOPHIL [4]: 0% | ERYTHROCYTE COUNT [4]: 5.8 x10E6/uL | HEMATOCRIT [4]: 36.37% | HEMOGLOBIN [4]: 13.53 G/DL | LEUKOCYTE COUNT [4]: 16.03 x10E3/uL | LYMPHOCYTE [4]: 86% | MEAN CORPUSCULAR HEMOGLOBIN [4]: 23.33 pg | MEAN CORPUSCULAR HEMOGLOBIN CONCENTRATION [4]: 37.23 G/DL | MONOCYTE [4]: 1.33% | NUCLEATED RED BLOOD CELLS [4]: 0 /100WBC | PLATELET COUNT [4]: 1437.33 x10E3/uL | ALANINE AMINOTRANSFERASE [4]: 49.33 u/L | ALBUMIN [4]: 4.13 G/DL | ALKALINE PHOSPHATASE [4]: 415 u/L | ASPARTATE AMINOTRANSFERASE [4]: 76 u/L | BLOOD UREA NITROGEN [4]: 20.33 mg/dL | CARBON DIOXIDE [4]: 27.67 mmol/L | CHLORIDE [4]: 105 MEQ/L | CHOLESTEROL [4]: 63 mg/dL | CREATINE PHOSPHOKINASE [4]: 180 u/L | CREATININE [4]: 0.22 mg/dL | GLUCOSE [4]: 154 mg/dL | LACTATE DEHYDROGENASE [4]: 224.33 u/L | PHOSPHORUS [4]: 13.03 mg/dL | POTASSIUM [4]: 6.39 MEQ/L | SODIUM [4]: 146.27 MEQ/L | TOTAL BILIRUBIN [4]: 0.17 mg/dL | TOTAL PROTEIN [4]: 5.87 G/DL | URIC ACID [4]: 1.57 mg/dL
